Test results taken from patent US6696486B1, “Medical use for atypical β-adrenoceptor agonists” (Glaxo Group Limited, priority 1992, dated 2004).

What was measured:
[1] = system: indomethacin-induced antral damage; test: indomethacin-induced gastric antral lesions in the re-fed rat (Method 2); format: in vivo; settings: for % Protection: single dose 30 minutes before indomethacin (60 mg/kg s.c.)
Excerpt: An experimental model in which atypical beta-adrenoceptor agonists may be shown to be of use in the treatment of gastrointestinal disorders is described below as Method 2. The procedure is based upon that described by H. Satoh et. al., Gastroenterology, 81, 719-725 (1981) in which the effect of compounds on indomethacin-induced gastric antral lesions in the re-fed rat is investigated. Indomethacin is an example of the class of compound known as non-steroidal anti-inflammatory drugs (NSAIDs), the use of which is frequently associated with gastrointestinal ulcers.
Food (but not water) is withheld from female random hooded rats (70-120 g) for 24 hours and then the rats are re-fed with Rat and Mouse No. 1 Maintenance Diet. After 1 hour of access to food, the rats are dosed orally with either the test compound or solvent (0.5% w/v methyl cellulose in water). 30 minutes later, indomethacin (60 mg/kg; dissolved in 1% w/v NaHCO3 in saline) is administered as a single subcutaneous injection at the back of the neck. Subsequently, the rats are allowed food, but water is withheld, and the animals are humanely killed by cervical dislocation at 6 hours post dose. Control animals received a single subcutaneous dose of the appropriate solvent.
The rat's stomach is removed (with a small amount of duodenum attached), opened along the greater curvature and the contents removed by washing with 0.9% w/v sodium chloride solution (saline). The opened stomach is pinned out (mucosal surface uppermost) on a polystyrene mat and the area of damage assessed by placing a grid (composed of 1 mm squares) over the antral region. Antral damage appears as discrete black or dark brown ulcers. The total area of antral damage is then expressed as a percentage of the total surface area of the antrum.
The protective effect of the test compound on indomethacin-induced antral damage is calculated as a percentage using the following equation: [formula]

[2] = system: indomethacin-induced ulceration of the small intestine; test: indomethacin-induced ulceration of the small intestine in the rat (Method 3); format: in vivo; settings: single dose 30 minutes before indomethacin (15 mg/kg p.o.)
Method: Another experimental model in which atypical beta-adrenocopter agonists may be shown to be of use in the treatment of gastrointestinal disorders is described below as Method 3. This is a model of indomethacin-induced ulceration of the small intestine in the rat.
Female random hooded rats (100-150 g) are allowed free access to food and water. The rats are dosed orally with either the test compound (1 ml per 100 g of an appropriated dose) or solvent (0.5% w/v methyl cellulose in water). 30 minutes later, indomethacin (15 mg/kg) is administered orally using a dose volume of 1 ml per 100 g of a 1.5 mg/ml solution of indomethacin in 1% w/v NaHCO3. The animals are humanely killed by cervical dislocation at 48 hours post dose.
The rat's small intestine is removed, opened along its length and the contents removed by washing with 0.9% w/v sodium chloride solution (saline). The opened small intestine is pinned out (mucosal surface uppermost) on a polystyrene mat and the area of damage assessed by placing a grid (composed of 1 mm squares) over the preparation. The number of visible ulcers (appearing as discrete black or brown lesions) running the length of the small intestine is counted. The protective effect of the test compound is calculated as a percentage using the following equation: [formula]

[3] = system: piroxicam-induced antral damage; format: in vivo, rat
[4] = inhibition of indomethacin-induced antral ulceration in rat
[5] = 0.5 mg/kg p.o., single dose 30 minutes before NSAID

## COC(=O)COc1ccc(CC(C)NCC(O)c2cccc(Cl)c2)cc1 (stereo not shown) [BRL 35135, N-[2-(4-carbomethoxymethoxyphenyl)-1-methylethyl]-2-hydroxy-2-(3-chlorophenyl)ethanamine]
[1]; 20 μg/kg p.o.
  % Protection: 40%
[1]; 50 μg/kg p.o.
  % Protection: 48%
[1]; 100 μg/kg p.o.
  % Protection: 88%
[1]; 500 μg/kg p.o.
  % Protection: 97%
[1]; gastro-protection against indomethacin-induced antral damage, rat
  ED50: approximately 50 μg/kg p.o.
[2]; 0.05 mg/kg p.o.
  % inhibition: 24 ± 15%
[2]; 0.1 mg/kg p.o.
  % inhibition: 35 ± 7%
[2]; 0.5 mg/kg p.o.
  % inhibition: 76 ± 3%
[2]; 2.5 mg/kg p.o.
  % inhibition: 85 ± 3%
[2]; 10 mg/kg p.o.
  % inhibition: 80 ± 3%

## C[C@H](Cc1ccc2c(c1)OC(C(=O)O)(C(=O)O)O2)NC[C@@H](O)c1cccc(Cl)c1 [(R,S)-5-(2-((2-(3-chlorophenyl)-2-hydroxyethyl)amino)propyl)-1,3-benzodioxole-2,2-dicarboxylic acid]
[1]; dose 1 mg/kg p.o.
  Maximum Inhibition (dose; mg/kg p.o.): 64% (1)
[1]; [4]
  ED50: 0.6 mg/kg p.o.

## COC(=O)COc1ccc(C[C@H](C)NC[C@H](O)c2cccc(Cl)c2)cc1 [(R,S)-N-[2-(4-carbomethoxymethoxyphenyl)-1-methylethyl]-2-hydroxy-2-(3-chlorophenyl)ethanamine]
[1]; dose 3 mg/kg p.o.
  Maximum Inhibition (dose; mg/kg p.o.): 93% (3)
[1]; [4]
  ED50: 0.2 mg/kg p.o.

## COC(=O)COc1ccc(C[C@@H](C)NC[C@@H](O)c2cccc(Cl)c2)cc1 [(S,R)-N-[2-(4-carbomethoxymethoxyphenyl)-1-methylethyl]-2-hydroxy-2-(3-chlorophenyl)ethanamine]
[1]; dose 3 mg/kg p.o.
  Maximum Inhibition (dose; mg/kg p.o.): 88% (3)
[1]; [4]
  ED50: 0.5 mg/kg p.o.

## COc1ccc2c(c1)c(CC(=O)O)c(C)n2C(=O)c1ccc(Cl)cc1 [indomethacin, reference compound]
[1]; subcutaneous dose of 60 mg/kg, rat
  percentage area of damage (antral): 19±5%

## COC(=O)COc1ccc(C[C@@H](C)NC[C@H](O)c2cccc(Cl)c2)cc1 [(R,R)-N-[2-(4-carbomethoxymethoxyphenyl)-1-methylethyl]-2-hydroxy-2-(3-chlorophenyl)ethanamine]
[1]; dose 3 mg/kg p.o.
  Maximum Inhibition (dose; mg/kg p.o.): 100% (3)
[1]; [4]
  ED50: 0.02 mg/kg p.o.

## CN1C(C(=O)Nc2ccccn2)=C(O)c2ccccc2S1(=O)=O [piroxicam, reference compound]
[3]; female, random hooded, rat, in vivo, sc, 60 mg/kg, 6 h
  percentage area of antral damage: 21±3%

## C[C@H](Cc1ccc(OCC(=O)O)cc1)NC[C@H](O)c1cccc(Cl)c1 [(R,R)-N-[2-(4-carboxymethoxyphenyl)-1-methylethyl]-2-hydroxy-2-(3-chlorophenyl)ethanamine]
[1]; dose 3 mg/kg p.o.
  Maximum Inhibition (dose; mg/kg p.o.): 100% (3)
[1]; [4]
  ED50: 0.03 mg/kg p.o.

## C[C@@H](Cc1ccc(OCC(=O)O)cc1)NC[C@@H](O)c1cccc(Cl)c1 [(S,S)-N-[2-(4-carboxymethoxyphenyl)-1-methylethyl]-2-hydroxy-2-(3-chlorophenyl)ethanamine]
[1]; dose 3 mg/kg p.o.
  Maximum Inhibition (dose; mg/kg p.o.): 97% (3)
[1]; [4]
  ED50: 0.8 mg/kg p.o.

## C[C@@H](Cc1ccc(OCC(=O)O)cc1)NC[C@H](O)c1cccc(Cl)c1 [(R,S)-N-[2-(4-carboxymethoxyphenyl)-1-methylethyl]-2-hydroxy-2-(3-chlorophenyl)ethanamine]
[1]; dose 3 mg/kg p.o.
  Maximum Inhibition (dose; mg/kg p.o.): 77% (3)
[1]; [4]
  ED50: 0.3 mg/kg p.o.

## C[C@H](Cc1ccc2c(c1)OC(C(=O)O)(C(=O)O)O2)NC[C@H](O)c1cccc(Cl)c1 [CL 316243, (R,R)-5-(2-((2-(3-chlorophenyl)-2-hydroxyethyl)amino)propyl)-1,3-benzodioxole-2,2-dicarboxylic acid]
[1]; [5]
  % inhibition of indomethacin-induced damage: 83%
[1]; dose 1 mg/kg p.o.
  Maximum Inhibition (dose; mg/kg p.o.): 96% (1)
[1]; [4]
  ED50: 0.03 mg/kg p.o.
[3]; [5]
  % inhibition of piroxicam-induced damage: 96%
[2]; 10 mg/kg p.o.
  % inhibition: 93 ± 4%
